What all share (assay): whole-cell patch clamp, mechanically activated current block
Common to all, as to format: cell-based
A general note: Patch clamp records ionic current or voltage across a cell membrane.

Assay [1] has as its target T1, mPiezo1 (Mus musculus, UniProt E2JF22, E2133Q).
T1 construct: gene Piezo1; full length, 2547 residues, IRES-EGFP pcDNA3.1(-) vector, transfected HEK293T
The conditions noted are these: -80 mV; extracellular RR; pH 7.3; room temperature.

The target in assay [2] is T2, mPiezo1 (Mus musculus, UniProt E2JF22, E2133D).
T2 construct: gene Piezo1; full length, 2547 residues, IRES-EGFP pcDNA3.1(-) vector, transfected HEK293T
T2 sequence (E2JF22 whole entry E2133D): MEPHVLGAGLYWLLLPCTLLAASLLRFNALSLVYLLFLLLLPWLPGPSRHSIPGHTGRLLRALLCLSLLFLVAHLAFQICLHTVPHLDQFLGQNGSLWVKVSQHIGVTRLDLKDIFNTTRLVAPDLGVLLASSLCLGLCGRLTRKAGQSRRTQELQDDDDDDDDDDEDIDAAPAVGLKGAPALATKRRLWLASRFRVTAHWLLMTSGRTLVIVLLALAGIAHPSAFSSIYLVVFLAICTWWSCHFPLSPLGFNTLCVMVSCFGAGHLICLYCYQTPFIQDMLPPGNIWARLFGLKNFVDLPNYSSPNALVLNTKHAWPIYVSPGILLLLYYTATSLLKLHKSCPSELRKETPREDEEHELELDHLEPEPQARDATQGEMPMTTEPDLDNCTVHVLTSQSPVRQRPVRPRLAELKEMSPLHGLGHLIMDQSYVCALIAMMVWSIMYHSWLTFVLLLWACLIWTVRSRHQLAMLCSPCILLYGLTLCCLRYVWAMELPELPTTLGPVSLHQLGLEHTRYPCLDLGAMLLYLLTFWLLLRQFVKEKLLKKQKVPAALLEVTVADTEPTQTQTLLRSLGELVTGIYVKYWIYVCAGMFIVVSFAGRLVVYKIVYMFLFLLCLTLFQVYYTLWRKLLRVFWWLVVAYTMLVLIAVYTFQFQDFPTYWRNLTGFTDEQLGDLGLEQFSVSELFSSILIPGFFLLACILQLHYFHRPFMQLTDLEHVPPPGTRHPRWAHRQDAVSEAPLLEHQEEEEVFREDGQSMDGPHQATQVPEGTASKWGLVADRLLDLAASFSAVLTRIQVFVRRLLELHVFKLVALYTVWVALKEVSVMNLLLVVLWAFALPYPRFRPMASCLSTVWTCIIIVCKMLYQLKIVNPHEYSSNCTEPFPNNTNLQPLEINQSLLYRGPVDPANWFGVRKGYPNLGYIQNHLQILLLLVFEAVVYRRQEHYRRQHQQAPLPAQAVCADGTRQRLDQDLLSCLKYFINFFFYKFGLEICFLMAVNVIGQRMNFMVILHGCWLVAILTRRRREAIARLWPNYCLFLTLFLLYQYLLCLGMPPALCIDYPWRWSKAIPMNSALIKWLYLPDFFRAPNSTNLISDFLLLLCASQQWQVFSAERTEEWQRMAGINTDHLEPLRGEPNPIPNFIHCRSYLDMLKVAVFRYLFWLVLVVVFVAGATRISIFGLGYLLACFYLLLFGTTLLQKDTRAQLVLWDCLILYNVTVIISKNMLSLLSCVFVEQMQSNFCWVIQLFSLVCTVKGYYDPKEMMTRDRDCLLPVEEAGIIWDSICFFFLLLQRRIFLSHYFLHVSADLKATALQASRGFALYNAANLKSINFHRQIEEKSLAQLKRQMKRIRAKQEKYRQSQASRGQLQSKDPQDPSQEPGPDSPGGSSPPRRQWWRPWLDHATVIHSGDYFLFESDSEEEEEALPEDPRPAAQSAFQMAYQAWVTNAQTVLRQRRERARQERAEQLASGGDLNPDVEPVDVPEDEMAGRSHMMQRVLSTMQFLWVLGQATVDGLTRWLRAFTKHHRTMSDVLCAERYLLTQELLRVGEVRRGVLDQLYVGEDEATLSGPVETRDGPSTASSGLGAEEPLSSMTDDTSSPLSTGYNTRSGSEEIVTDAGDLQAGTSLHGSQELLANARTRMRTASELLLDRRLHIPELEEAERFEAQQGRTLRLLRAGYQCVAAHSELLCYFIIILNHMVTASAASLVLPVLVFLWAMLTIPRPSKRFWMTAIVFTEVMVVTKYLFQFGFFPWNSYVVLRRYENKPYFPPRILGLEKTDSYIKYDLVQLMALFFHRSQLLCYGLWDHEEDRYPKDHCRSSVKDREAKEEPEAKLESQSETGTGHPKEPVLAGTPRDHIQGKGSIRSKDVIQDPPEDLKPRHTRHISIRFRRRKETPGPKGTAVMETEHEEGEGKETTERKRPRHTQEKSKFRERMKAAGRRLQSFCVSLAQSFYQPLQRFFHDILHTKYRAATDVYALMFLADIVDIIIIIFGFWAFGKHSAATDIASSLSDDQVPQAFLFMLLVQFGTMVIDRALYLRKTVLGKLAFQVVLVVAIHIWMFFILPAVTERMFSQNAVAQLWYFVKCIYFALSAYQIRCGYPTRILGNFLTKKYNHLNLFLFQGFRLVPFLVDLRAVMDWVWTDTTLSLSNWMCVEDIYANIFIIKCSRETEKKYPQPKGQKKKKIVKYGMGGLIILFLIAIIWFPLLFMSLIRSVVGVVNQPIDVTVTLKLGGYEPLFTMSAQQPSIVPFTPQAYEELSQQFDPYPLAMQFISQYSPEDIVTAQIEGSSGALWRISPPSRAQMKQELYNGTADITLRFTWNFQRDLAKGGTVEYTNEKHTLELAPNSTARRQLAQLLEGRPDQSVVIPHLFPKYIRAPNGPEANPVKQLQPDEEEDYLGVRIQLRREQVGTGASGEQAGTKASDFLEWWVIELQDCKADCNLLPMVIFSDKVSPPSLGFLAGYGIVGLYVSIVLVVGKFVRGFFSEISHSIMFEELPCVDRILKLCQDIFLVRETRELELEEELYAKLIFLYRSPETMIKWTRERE
The conditions noted are these: -80 mV; extracellular RR; pH 7.3; room temperature.

Assay [3] addresses T3, mPiezo2 (Mus musculus, UniProt Q8CD54, E2416K).
T3 construct: gene Piezo2; full length, pCMV-Sport6 vector (printed for the E2416K mutant), transfected HEK293T
The conditions noted are these: -80 mV; extracellular RR; pH 7.3; room temperature.

For assay [4], the target named is T4, mPiezo1 (Mus musculus, UniProt E2JF22).
T4 construct: gene Piezo1; full length, 2547 residues, IRES-EGFP pcDNA3.1(-) vector, transfected HEK293T
T4 sequence (E2JF22 whole entry): as the sequence (E2JF22 whole entry E2133D) above, with D2133E counted along it
The conditions noted are these: -80 mV; extracellular RR; pH 7.3; room temperature; voltage-dependent pore block.

Assay [5] has as its target T5, mPiezo2 (Mus musculus, UniProt Q8CD54).
T5 construct: gene Piezo2; full length, pCMV-Sport6 vector (printed for the E2416K mutant), transfected HEK293T
The conditions noted are these: -80 mV; extracellular RR; pH 7.3; room temperature.

In assay [6] the target is T6, mPiezo1 (Mus musculus, UniProt E2JF22, E2133K).
T6 construct: gene Piezo1; full length, 2547 residues, IRES-EGFP pcDNA3.1(-) vector, transfected HEK293T
T6 sequence (E2JF22 whole entry E2133K): as the sequence (E2JF22 whole entry E2133D) above, with D2133K counted along it
The conditions noted are these: -80 mV; extracellular RR; pH 7.3; room temperature.

Results on one compound are retold here after PMC4445471, “Piezo1 ion channel pore properties are dictated by C-terminal region” (Nature Communications, 2015).

The structures appear in SMILES notation.

T1 sequence (E2JF22 whole entry E2133Q): as the sequence (E2JF22 whole entry E2133D) above, with D2133Q counted along it

One may read the IC50 as the concentration at which inhibition is half-maximal. Read a low IC50 as higher potency. As for `N.N.N.N.N.N.N.N.N.N.N.N.N.N.[Cl-].[Cl-].[Cl-].[Cl-].[Cl-].[Cl-].[O-2].[O-2].[Ru+3].[Ru+3].[Ru+4]` [ruthenium red], the IC50 against mPiezo1 [1] is 5.62 ± 1.27 µM; on mPiezo1 [2], 1.26 ± 0.28 µM; against mPiezo1 [4] it was 4.71 ± 0.83 µM. Further, the “% block at 30 μM” value at mPiezo2 [3] is 49.6±4.6%; on mPiezo2 [5], 70.8±1.4%; on mPiezo1 [6] it was 8.1±7.1%.
